{"source": "patent US4046765A", "about": "“Dihydroquinoline derivatives of antioxidant activity and a process for the preparation thereof” (priority 1971, dated 1977)", "key": {"solubility": {"experiment": "solubility", "type": "physicochemical"}, "[1]": {"conditions": "biological systems, foodstuff mixtures; cited from earlier work"}, "[2]": {"conditions": "known antioxidant; cited from earlier work"}, "[3]": {"experiment": "antioxidant effect on fish-meal samples, oxygen uptake in Warburg apparatus and peroxide number", "conditions": "40 g. fish meal + 0.04 g. antioxidant; for oxygen uptake (decrease of O2 pressure): 29° C., Warburg apparatus, control 19.5; for Peroxide Number: calculated for 1 g. of fish meal, after treatment with oxygen, control 7.83", "description": "The antioxidant effect of the new substances shown in foodstuffs and nutriments was investigated on fish-meal samples. […] In these experiments the oxygen uptake of fish-meal samples containing the various antioxidants was determined in a Warburg apparatus at 29° C., and the results were compared with those measured on samples containing no antioxidant. The peroxide number of samples treated with oxygen was also determined."}, "[4]": {"test_system": "encephalomalacia of poultries", "conditions": "compared with EMQ; cited from earlier work"}, "[5]": {"conditions": "in vivo; cited from earlier work"}, "rats [6]": {"test_system": "rats", "conditions": "rat, in vivo", "description": "(§1) Since the novel compounds are completely nontoxic, they can be used with great advantage in animal husbandry and in the food industry, as well as in therapy. On the basis of the investigations carried out on the acute and chronic toxicity of these new active agents, it can be stated that they are completely free of the disadvantages of the hitherto-known antioxidants mentioned above, first of all as regards their use in therapy."}, "rats [7]": {"test_system": "rats", "experiment": "chronic toxicity of XAX, continuous administration to rats", "type": "in vivo, rat", "description": "as §1"}, "serum cholesterol": {"test_system": "serum cholesterol", "experiment": "serum cholesterol lowering in rabbits treated with cholesterol", "type": "in vivo, rabbit", "conditions": "1 g. cholesterol per day, XAX 0.06 g./kg. daily, 70 or 105 days", "description": "Due to this fact they can also be used for the prophylaxis and treatment of arteriosclerosis. This effect of the new substances was investigated on rabbits treated with 1 g. of cholesterol per day. The animals were treated for 70 or 105 days with daily doses of 0.06 g./kg. of XAX. […] Using the hitherto-known antioxidants, this very favorable and important effect could not be reached at all."}, "malignant tumors": {"test_system": "malignant tumors", "experiment": "appearance of malignant tumors in animals treated with minimum irradiation doses for a long period", "type": "in vivo", "conditions": "versus irradiated untreated animals", "description": "Another important and unexpected property of the new substances is that they exert radiosensibilizing effect. […] On the basis of this property, the new compounds can also be used for the potentiating of the effect of irradiation therapy."}, "[8]": {"test_system": "liver cirrhosis caused by carbon tetrachloride", "experiment": "prophylactic activity against liver cirrhosis caused by carbon tetrachloride", "type": "in vivo"}, "[9]": {"conditions": "0.56 g./kg., longer period, animals; cited from earlier work"}, "rats [10]": {"test_system": "rats", "conditions": "0.50 g./kg., 14 days; cited from earlier work"}, "[11]": {"conditions": "90 days, versus untreated animals"}}, "note": "Counter-ions that a name gives are not always drawn.", "data": [{"smiles": "CC1=CC(C)(C)Nc2ccc(Cc3ccc4c(c3)C(C)=CC(C)(C)N4)cc21", "note": "[sulfuric acid salt of XAX]", "values": [{"measurement": "solubility in water and alcohol", "setting": "solubility", "value": "soluble in water and alcohol"}]}, {"smiles": "CC1=CC(C)(C)Nc2ccc(Cc3ccc4c(c3)C(C)=CC(C)(C)N4)cc21", "note": "[Example 9, bis-(2,2,4-trimethyl-1,2-dihydroquinolyl-6)-methane-dihydrochloride]", "values": [{"measurement": "solubility in water and alcohol", "setting": "solubility", "value": "soluble in water and alcohol"}]}, {"smiles": "c1ccc(Nc2ccc(Nc3ccccc3)cc2)cc1", "note": "[DPPD, N,N'-diphenyl-p-phenylenediamine]", "values": [{"measurement": "activity as antioxidant", "setting": "[1]", "value": "relatively low activity"}, {"measurement": "cancer-inducing effect", "setting": "[2]", "value": "cancer-inducing effect"}]}, {"smiles": "Cc1cc(C(C)(C)C)c(O)c(C(C)(C)C)c1", "note": "[BHT]", "values": [{"measurement": "oxygen uptake (decrease of O2 pressure)", "setting": "[3]", "value": 16.5, "unit": "mmHg"}, {"measurement": "Peroxide Number", "setting": "[3]", "value": 3.42}, {"measurement": "activity in encephalomalacia of poultries versus EMQ", "setting": "[4]", "value": "far lower activity than EMQ"}, {"measurement": "teratogeneous effect (anophthalmia)", "setting": "[5]", "value": "the appearance of anophthalmia was observed, indicating that the compound exerts a teratogeneous effect"}]}, {"smiles": "CC1=CC(C)(C)Nc2ccc(Cc3ccc4c(c3)C(C)=CC(C)(C)N4)cc21", "note": "[XAX, bis-(2,2,4-trimethyl-1,2-dihydroquinolyl-6)-methane]", "values": [{"measurement": "toxic symptoms", "setting": "rats [6]", "value": "no toxic symptoms"}, {"measurement": "weight gain and blood picture", "setting": "rats [7]; [11]", "value": "Neither the weight gain nor the blood picture of the animals was harmfully affected"}, {"measurement": "weight gain of some organs", "setting": "rats [7]; [11]", "value": "no excessive weight gain of some organs of the animals could be observed"}, {"measurement": "damaging of tissues or cells", "setting": "rats [7]; daily 0.25 mg./kg., 3 weeks", "value": "no damaging of tissues or cells could be observed"}, {"measurement": "oxygen uptake (decrease of O2 pressure)", "setting": "[3]", "value": 11.5, "unit": "mmHg"}, {"measurement": "Peroxide Number", "setting": "[3]", "value": 1.54}, {"measurement": "cholesterol level of the blood", "setting": "serum cholesterol", "value": "the cholesterol level of the blood decreased to a great extent"}, {"measurement": "appearance of malignant tumors", "setting": "malignant tumors", "value": "could be suppressed"}, {"measurement": "prophylactic activity against liver cirrhosis", "setting": "[8]", "value": "great prophylactic activity"}]}, {"smiles": "CC1=CC(C)(C)Nc2ccc(Cc3ccc4c(c3)C(C)=CC(C)(C)N4)cc21", "note": "[Example 8, bis-(2,2,4-trimethyl-1,2-dihydroquinolyl-6)-methane]", "values": [{"measurement": "solubility in water and alcohol", "setting": "solubility", "value": "well soluble in water and alcohol"}]}, {"smiles": "CCOc1ccc2c(c1)C(C)=CC(C)(C)N2", "note": "[EMQ, 6-ethoxy-2,2,4-trimethyl-1,2-dihydroquinoline]", "values": [{"measurement": "oxygen uptake (decrease of O2 pressure)", "setting": "[3]", "value": 23.5, "unit": "mmHg"}, {"measurement": "Peroxide Number", "setting": "[3]", "value": 2.87}, {"measurement": "appetite", "setting": "[9]", "value": "may cause appetite lowering"}, {"measurement": "gain in weight", "setting": "[9]", "value": "lowers the gain in weight"}, {"measurement": "appetite", "setting": "rats [10]", "value": "the appetite of the animals was lowered"}, {"measurement": "size of the liver", "setting": "rats [10]", "value": "an increase in size of the liver was observed"}]}]}
